Assays:
[1] = target: T1, CYP2C19 (Homo sapiens, UniProt P33261); experiment: CYP inhibition test (CYP2C19); assay type: in vitro ADME; conditions: pooled human hepatic microsome, mephenyloin 4′-hydroxylation
T1 construct: enzyme, pooled human hepatic microsome 0.2 mg protein/mL; from tissue; host or cells: pooled human hepatic microsome
From the text: (§1) Using commercially available pooled human hepatic microsome, and employing, as markers, 7-ethoxyresorufin O-deethylation (CYP1A2), tolbutamide methyl-hydroxylation (CYP2C9), mephenyloin 4′-hydroxylation (CYP2C19), dextromethorphan O-demethylation (CYP2D6), and terfenedine hydroxylation (CYP3A4) as typical substrate metabolism reactions of human main five CYP enzyme forms (CYP1A2, 2C9, 2C19, 2D6, 3A4), an inhibitory degree of each metabolite production amount by a compound of the present invention was assessed. […] After the centrifugation at 3000 rpm for 15 minutes, resorufin (CYP1A2 metabolite) in the supernatant was quantified by a multi-label counter and hydroxytolbutamide (CYP2C9 metabolite), 4′-hydroxymephenyloin (CYP2C19 metabolite), dextrorphan (CYP2D6 metabolite), and terfenadine alcohol metabolite (CYP3A4 metabolite) were quantified by LC/MS/MS. Addition of only DMSO being a solvent dissolving a compound to a reaction system was adopted as a control (100%), remaining activity (%) was calculated and IC50 was calculated by reverse presumption by a logistic model using a concentration and an inhibition rate.

[2] = target: CYP3A4 (Homo sapiens, UniProt P08684); experiment: CYP inhibition test (CYP3A4); assay type: in vitro ADME; parameters: enzyme, pooled human hepatic microsome 0.2 mg protein/mL; from tissue; host or cells: pooled human hepatic microsome; conditions: pooled human hepatic microsome, terfenedine hydroxylation
Sequence of CYP3A4 (P08684 whole entry): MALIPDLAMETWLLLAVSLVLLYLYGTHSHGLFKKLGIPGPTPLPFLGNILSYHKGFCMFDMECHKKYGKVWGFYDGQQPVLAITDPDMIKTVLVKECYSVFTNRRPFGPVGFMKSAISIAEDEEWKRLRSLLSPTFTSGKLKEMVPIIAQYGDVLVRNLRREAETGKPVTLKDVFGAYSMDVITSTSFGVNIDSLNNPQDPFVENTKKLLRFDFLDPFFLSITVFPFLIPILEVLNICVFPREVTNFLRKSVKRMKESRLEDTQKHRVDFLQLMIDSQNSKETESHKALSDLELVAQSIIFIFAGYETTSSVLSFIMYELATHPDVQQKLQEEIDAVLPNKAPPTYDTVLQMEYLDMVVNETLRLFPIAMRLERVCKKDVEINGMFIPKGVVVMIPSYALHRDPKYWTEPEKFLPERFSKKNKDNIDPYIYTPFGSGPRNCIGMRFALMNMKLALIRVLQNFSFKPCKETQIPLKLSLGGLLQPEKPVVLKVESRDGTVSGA
From the text: as §1

[3] = target: T2, Recombinant human BACE1 (Homo sapiens, UniProt P56817); experiment: Assay of BACE1 inhibitory activity; assay type: biochemical; conditions: Recombinant human BACE1, 30° C., 3 hours, pH 5.0; read-out: IC50 (50% inhibitory concentration against the enzymatic activity)
T2 construct: purchased R&D Systems
T2 sequence (P56817 46-501): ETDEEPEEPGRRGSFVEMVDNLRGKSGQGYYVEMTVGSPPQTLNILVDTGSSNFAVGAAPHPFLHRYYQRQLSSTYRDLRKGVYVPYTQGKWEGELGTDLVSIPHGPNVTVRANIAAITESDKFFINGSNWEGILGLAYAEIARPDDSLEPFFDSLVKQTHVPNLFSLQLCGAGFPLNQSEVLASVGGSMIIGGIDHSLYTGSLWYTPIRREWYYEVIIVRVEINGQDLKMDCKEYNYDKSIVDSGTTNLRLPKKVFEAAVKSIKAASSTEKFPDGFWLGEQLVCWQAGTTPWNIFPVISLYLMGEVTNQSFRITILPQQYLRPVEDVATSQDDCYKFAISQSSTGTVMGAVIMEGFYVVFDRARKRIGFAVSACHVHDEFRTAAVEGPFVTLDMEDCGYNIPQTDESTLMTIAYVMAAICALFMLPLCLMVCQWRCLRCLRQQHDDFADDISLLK
Procedure: 48.5 μL of substrate peptide solution (Biotin-XSEVNLDAEFRHDSGC-Eu: X=ε-amino-n-capronic acid, Eu=Europium cryptate) was added to each well of 96-hole half-area plate (a black plate: Costar), and after addition of 0.5 μl of the compound of the present invention (N,N′-dimethylformamide solution) and 1 μl of Recombinant human BACE1(R&D Systems), the reaction mixture was incubated at 30° C. for 3 hours. The substrate peptide was synthesized by reacting Cryptate TBPCOOH mono SMP (CIS bio international) with Biotin-XSEVNLDAEFRHDSGC (Peptide Institute, Inc.). The final concentrations of the substrate peptide and Recombinant human BACE1 were adjusted to 18 nmol/L and 7.4 nmol/L, respectively, and the reaction was performed in sodium acetate buffer (50 mmol/L sodium acetate, pH 5.0, 0.008% Triton X-100). After the incubation for reaction, 50 μl of 8.0 μg/ml Streptavidin-XL665 (CIS bio international) dissolved in phosphate buffer (150 mmol/L K2HPO4—KH2PO4, pH 7.0, 0.008% Triton X-100, 0.8 mol/L KF) was added to each well and left stand at 30° C. for 1 hour. After then, fluorescence intensity was measured (excitation wavelength: 320 nm, measuring wavelength: 620 nm and 665 nm) using Wallac 1420 multilabel counter (Perkin Elmer life sciences). Enzymatic activity was determined from counting ratio of each wavelength (10,000×Count 665/Count 620) and 50% inhibitory concentration against the enzymatic activity (IC50) was calculated.

[4] = target: T3, CYP1A2 (Homo sapiens, UniProt P05177); experiment: CYP inhibition test (CYP1A2); assay type: in vitro ADME; conditions: pooled human hepatic microsome, 7-ethoxyresorufin O-deethylation
T3 construct: enzyme, pooled human hepatic microsome 0.2 mg protein/mL; from tissue; host or cells: pooled human hepatic microsome
T3 sequence (P05177 1-516): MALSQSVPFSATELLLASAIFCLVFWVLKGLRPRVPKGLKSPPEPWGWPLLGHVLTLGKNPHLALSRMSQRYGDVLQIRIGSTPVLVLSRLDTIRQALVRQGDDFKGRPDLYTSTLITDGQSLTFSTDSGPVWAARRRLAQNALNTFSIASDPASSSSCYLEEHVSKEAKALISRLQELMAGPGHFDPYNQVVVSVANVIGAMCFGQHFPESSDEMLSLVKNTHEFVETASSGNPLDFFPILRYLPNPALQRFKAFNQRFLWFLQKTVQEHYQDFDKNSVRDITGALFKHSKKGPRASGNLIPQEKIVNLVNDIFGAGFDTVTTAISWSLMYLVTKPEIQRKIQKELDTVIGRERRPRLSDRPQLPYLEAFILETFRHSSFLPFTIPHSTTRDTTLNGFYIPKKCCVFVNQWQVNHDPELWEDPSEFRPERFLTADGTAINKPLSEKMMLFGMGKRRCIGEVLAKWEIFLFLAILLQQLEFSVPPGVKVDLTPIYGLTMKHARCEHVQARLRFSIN
From the text: as §1

[5] = target: T4, CYP2C9 (Homo sapiens, UniProt P11712); experiment: CYP inhibition test (CYP2C9); assay type: in vitro ADME; conditions: pooled human hepatic microsome, tolbutamide methyl-hydroxylation
T4 construct: enzyme, pooled human hepatic microsome 0.2 mg protein/mL; from tissue; host or cells: pooled human hepatic microsome
T4 sequence (P11712 whole entry): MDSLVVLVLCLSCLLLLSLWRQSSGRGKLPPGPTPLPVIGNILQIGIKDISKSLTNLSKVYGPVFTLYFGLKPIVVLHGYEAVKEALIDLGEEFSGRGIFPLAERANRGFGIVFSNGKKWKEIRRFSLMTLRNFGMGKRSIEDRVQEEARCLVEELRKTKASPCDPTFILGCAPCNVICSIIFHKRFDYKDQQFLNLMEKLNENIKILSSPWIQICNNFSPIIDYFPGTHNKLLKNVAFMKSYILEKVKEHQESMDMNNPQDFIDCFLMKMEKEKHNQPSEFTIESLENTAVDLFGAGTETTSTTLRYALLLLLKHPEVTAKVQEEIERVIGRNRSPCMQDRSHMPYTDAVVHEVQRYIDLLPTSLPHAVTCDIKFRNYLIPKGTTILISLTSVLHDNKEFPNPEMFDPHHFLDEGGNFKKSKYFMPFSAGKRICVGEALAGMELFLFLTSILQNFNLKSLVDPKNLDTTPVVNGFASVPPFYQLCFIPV
From the text: as §1

[6] = target: T5, CYP2D6 (Homo sapiens, UniProt P10635); experiment: CYP inhibition test (CYP2D6); assay type: in vitro ADME; conditions: pooled human hepatic microsome, dextromethorphan O-demethylation
T5 construct: enzyme, pooled human hepatic microsome 0.2 mg protein/mL; from tissue; host or cells: pooled human hepatic microsome
T5 sequence (P10635 whole entry): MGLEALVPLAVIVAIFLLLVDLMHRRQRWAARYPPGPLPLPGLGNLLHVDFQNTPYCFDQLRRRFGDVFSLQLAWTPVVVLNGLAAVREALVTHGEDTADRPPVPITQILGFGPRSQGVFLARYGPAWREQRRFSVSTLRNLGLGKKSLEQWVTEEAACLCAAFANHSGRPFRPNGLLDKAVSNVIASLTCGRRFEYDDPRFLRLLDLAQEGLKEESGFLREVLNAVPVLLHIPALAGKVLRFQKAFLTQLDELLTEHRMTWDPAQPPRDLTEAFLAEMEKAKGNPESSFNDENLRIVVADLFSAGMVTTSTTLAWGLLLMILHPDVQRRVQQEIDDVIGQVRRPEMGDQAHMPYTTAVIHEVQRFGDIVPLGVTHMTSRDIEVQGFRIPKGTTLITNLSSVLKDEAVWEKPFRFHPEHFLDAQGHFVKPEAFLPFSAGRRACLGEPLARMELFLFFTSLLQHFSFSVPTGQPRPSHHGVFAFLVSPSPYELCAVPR
From the text: as §1

[7] = Metabolism stability test; assay type: in vitro ADME; conditions: human liver microsomes 0.5 mg protein/mL, 37° C., 30 minutes, NADPH
Procedure: Using a commercially available pooled human hepatic microsomes, a compound of the present invention is reacted for a constant time, a remaining rate is calculated by comparing a reacted sample and an unreacted sample, thereby, a degree of metabolism in liver of the compound of the present invention is assessed.
A reaction is performed (oxidative reaction) at 37° C. for 0 minute or 30 minutes in the presence of 1 mmol/L NADPH in 0.2 mL of a buffer (50 mmol/L Tris-HCl pH 7.4, 150 mmol/L potassium chloride, 10 mmol/L magnesium chloride) containing 0.5 mg protein/mL of human liver microsomes. After the reaction, 50 μL of the reaction solution is added to 100 μL of a methanol/acetonitrile=1/1 (v/v), mixed and centrifuged at 3000 rpm for 15 minutes. The compound of the present invention in the supernatant is quantified by LC/MS/MS, and a remaining amount of the compound of the present invention after the reaction is calculated, letting a compound amount at 0 minute reaction time to be 100%.

T1 sequence (P33261 whole entry): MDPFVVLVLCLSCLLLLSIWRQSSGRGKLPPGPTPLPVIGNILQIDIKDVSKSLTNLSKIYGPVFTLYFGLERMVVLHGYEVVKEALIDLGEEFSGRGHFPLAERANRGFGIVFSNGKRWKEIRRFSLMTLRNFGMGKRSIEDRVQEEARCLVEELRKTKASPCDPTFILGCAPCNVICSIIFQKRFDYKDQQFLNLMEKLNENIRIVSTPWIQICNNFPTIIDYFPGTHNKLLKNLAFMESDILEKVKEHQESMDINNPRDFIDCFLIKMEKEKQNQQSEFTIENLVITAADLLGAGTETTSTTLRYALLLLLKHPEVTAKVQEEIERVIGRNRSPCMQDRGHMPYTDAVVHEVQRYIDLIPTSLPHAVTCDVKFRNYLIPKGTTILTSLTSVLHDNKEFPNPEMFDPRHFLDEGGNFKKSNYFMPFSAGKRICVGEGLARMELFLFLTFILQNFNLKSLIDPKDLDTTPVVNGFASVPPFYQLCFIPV

Structure (SMILES): CC1(c2cc(NC(=O)c3ncc(F)cc3F)ccc2F)Cc2ccncc2C(N)=N1 (centres unmarked) [Compound I-2]
- IC50 [1]: > 20 µM
- IC50 [2]: > 20 µM
- IC50 [3]: ≤ 1 µM
- IC50 [4]: > 20 µM
- IC50 [5]: > 20 µM
- IC50 [6]: > 20 µM

Structure (SMILES): CC1(c2cc(NC(=O)c3ccc(C#N)cn3)ccc2F)Cc2cnccc2C(N)=N1 (centres unmarked) [Compound I-5]
- remaining amount after the reaction [7]: 88%
- IC50 [3]: ≤ 1 µM
